Experimental data reported in US20070015737A1, “Compounds for inhibiting diseases and preparing cells for transplantation” (Neurochem (International) Limited, priority 1999, published 2007).

Key:
Type in all cases: biochemical
IAPP [1] = target: T1, IAPP (Homo sapiens, UniProt P10997); assay: Rate of amyloid fibril formation by Thioflavine T spectroscopy (Example 1); details: Thioflavine T fluorescence
T1 sequence (P10997 34-70 limits assumed): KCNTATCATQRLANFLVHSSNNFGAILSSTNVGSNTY
Experimental: Determination of the Rate of Amyloid Fibril Formation by Thioflavine T Spectroscopy
Detection of ThT fluorescence can be used as a sensitive assay for amyloid fibril formation under different conditions. This assay has been used in experiments to determine the effects of compounds of the invention on amyloid fibril formation.
Human IAPP was dissolved in 40% trifluoroethanol and freeze-dried into conveniently-sized aliquots. IAPP was prepared immediately before the measurements by dissolving in 40% 1,1,1,3,3,3-hexafluoro-2-propanol (HFIP) in water to maintain the peptide in alpha helical conformation and soluble. A stock solution of ThT (2.5 mM) was prepared, 7.9 mg in 10 mL Tris-HCl pH 7.0 and filtered (0.22 μm). Solutions were kept in the dark until use. Fluorescence was examined at 440 nm excitation (slit 5 nm), and emission at 482 nm (slit 10 nm) with stirring. […] of ThT stock (final concentration 62.5 μM) was added to peptide sample and made up to 1 mL in the cuvette. The sample was stirred for 5 min. before taking a reading. Measurements were made at an initial time point (5 min. from sample preparation), at intervals over the next 4-6 h and after overnight incubation at room temperature.

Human IAPP (hIAPP) = target: T2, Human IAPP (hIAPP) (Homo sapiens, UniProt P10997); assay: ELISA assay for quantitative determination of fibril formation (Example 4)
T2 construct: Human IAPP (hIAPP) was synthesised by solid state synthesis (Advanced Biotechnologies, UK); purchased Advanced Biotechnologies, UK; host or cells: chemical solid-phase synthesis
T2 sequence (P10997 34-70 limits assumed): T1 sequence (P10997 34-70 limits assumed)
Experimental: ELISA Assay for Quantitative Determination of Fibril Formation
Human IAPP (hIAPP) was synthesised by solid state synthesis (Advanced Biotechnologies, UK). Human IAPP forms fibrils immediately in aqueous media. Aliquots of IAPP in water (800 μg/ml) were stored frozen at −20° C. until use. These samples contain small numbers of fibrils visible with electron microscopy (em).
Two sets of samples containing IAPP (20 μM) with or without inhibitors (at a molar ratio of 10:1 with IAPP, (20 μM)) were prepared on day 1 in Tris buffer. One set was centrifuged, the supernatant removed and frozen immediately at −20° C. (Time zero time point). The other set was incubated overnight at room temp with shaking (time 24 h time point). On day 2 these samples were spun and supernatant removed to determine the proportion of non-fibrillar IAPP.
To assay IAPP in the supernatant both sets of samples were serially diluted in bicarbonate coating buffer, added to ELISA wells and incubated overnight. Plates were washed in phosphate buffer containing Tween (PBS/Tw)×3. Diluted antiserum raised against human IAPP was incubated on the plate for 90 minutes at 37° C. Following washing in PBS/Tw, alkaline phosphatase conjugated anti-rabbit antisera was incubated for 90 mins. Following washing in PBS/Tw, alkaline phosphate substrate was added and colour allowed to develop for 30 mins. Optical density was read at 405 nm.
Data from all samples was calculated to determine changes of IAPP concentration in the supernatant induced by the candidate substance immediately (i.e. at time zero) or after 24 h incubation. Data in FIG. 1 is expressed as the proportion of non-fibrillar IAPP in the supernatant of test samples compared to control at both time points.

IAPP [2] = target: T1, IAPP; assay: Rate of fibril formation by Thioflavine T spectroscopy (Example 5); details: thioflavine T assay
Experimental: Determination of the Rate of Fibril Formation by Thioflavine T Spectroscopy
This can be used as a sensitive assay for fibril formation under different conditions. This assay has been used in experiments to determine the effects of some candidate compounds on fibril formation.
Human IAPP was dissolved in 40% Trifuoroethanol and freeze dried into convenient sized aliquots. IAPP (1 mg/ml) was prepared immediately before the measurement by dissolving in 40% HFIP in water to maintain the peptide in alpha confirmation and soluble. A stock solution of Thioflavine T (2.5 mM) was prepared 7.9 mg in 10 ml Tris pH 7.0 and filtered (0.22 micron). Solutions were kept in dark until use. Fluorescence was examined at 440 nm excitation (slit 5 nm), and Emission at 482 nm (Slit 10 nm) with stirring. Twenty five microlitres of Th-T stock (final conc 62.5 μM) was added to peptide sample (8 μg/ml) and made up to 1 ml in the cuvette. The sample was stirred for 5 min before taking a reading. Measurements were made at an initial time points (5 mins from sample preparation) and at intervals over the next 4-6 h after overnight incubation at room temp with and without candidate compound (vi) and a compound known to accelerate fibril formation, polyvinylsulphonate.

IAPP fibrils = target: T3, IAPP fibrils (Homo sapiens, UniProt P10997); assay: Morphological characteristics of IAPP fibrils by transmission electron microscopy (Example 10); details: incubated 48 h, compared with IAPP alone
T3 sequence (P10997 34-70 limits assumed): T1 sequence (P10997 34-70 limits assumed)
Experimental: Morphological Characteristics of IAPP Fibrils Formed in Mixtures with Candidate Compounds.
IAPP prepared as in Example 3 was incubated with candidate compounds for 48 h Samples were then examined by transmission electron microscopy for the presence of fibrils. […] Long and short unbranching fibrils were present.

IAPP [3] = target: T1, IAPP; assay: Circular dichroism analysis of β-sheet conformation (Example 2); design: add 10 μL of 10 mg/mL IAPP stock solution (final 100 μg peptide); details: changes in ellipticity at 218 nm (β-sheet conformation); peptide:compound 1:10
Experimental: Circular dichroism analysis was conducted to confirm the activity of certain therapeutic compounds in preventing or inhibiting IAPP-associated fibril formation in accordance with the present disclosure by determining the presence or absence of β-sheet conformation.
The assay, a co-incubation procedure, examines the ability of a compound or substance to inhibit the assembly of amyloid fibrils, e.g., to test for the presence of the amyloidotic b-sheet conformation in the presence of soluble IAPP. Samples are run in the presence and absence (i.e., water alone) of buffering agent, which is done to determine if competitive effects are seen with the ionic buffer (usually phosphate).
Add components used at a molar ratio of 1:10 [peptide:compound]; add 10 μL of 10 mg/mL IAPP stock solution (final 100 μg peptide) to the aqueous solution containing compound to a final volume of 400 μl. The pH of the final assay solution is measured to ensure there is no fluctuation and the spectrum is accumulated using the parameters as shown above.
Add desired amount of compound to achieve a 1:10 molar ratio in 10 mM phosphate buffer, pH 7. Add 10 μL of 10 mg/mL IAPP stock solution (final peptide 100 μg) to the phosphate buffered solution containing the compound and bring to a final volume of 400 μL. The pH of the final assay solution is measured to ensure there is no fluctuation and the spectrum is accumulated using the parameters as shown above.
In both assays, a control sample is run with each test group. This control contains peptide only in water or buffer at a similar final volume of 400 μl. Spectra for the control are collected initially (first run) and at the end of the test (final run) to ensure that the peptide has not undergone extensive aggregation during the course of the assay. Spectra for the controls are used to compare with the measurements obtained with the treated samples.
Make fresh 1 mg/mL stock solution of IAPP in 10 mM phosphate buffer, pH 7. Add desired amount of compound to achieve a 1:10 molar ratio in 10 mM phosphate buffer, pH 7. Incubate for 3 days at room temperature. Make up to final volume of 400 μL with 10 mM phosphate buffer, pH 7. The pH of the final assay solution is measured to ensure there is no fluctuation and the spectrum is accumulated using the parameters as shown above. A similar control is run for comparative purposes.
Plots of the spectra (control and treated) are individually assembled and the changes in ellipticity at 218 nm are examined. This minimum is directly correlated with the amount of peptide in β-sheet conformation present in the sample. Changes in either a positive or negative direction are noted and a relative value (“active” or “not active”) assigned to the compound as a measure of activity.

Structure (SMILES): O=C(O)C(F)(F)C(F)(F)C(F)(F)C(=O)O [vi, Hexafluoroglutaric acid]
- IAPP-associated fibril assembly (IAPP [1]): inhibit or prevent IAPP-associated fibril assembly
- proportion of non-fibrillar IAPP in the supernatant (Human IAPP (hIAPP); IAPP 20 μM, inhibitor:IAPP molar ratio 10:1, compared to control): increase the proportion of non-fibrillar IAPP in the supernatant
- time point at which the increase of non-fibrillar IAPP was greater (Human IAPP (hIAPP); time zero versus time 24 h): greater at time zero
- time for which the reduced fluorescence level was stable (IAPP [2]): up to 15 hrs
- fluorescence units (IAPP [2]; compared with IAPP alone): reduced fluorescence below the level recorded for IAPP alone
- presence and morphology of fibrils (IAPP fibrils): contained fewer fibrils which were apparently short and long and not aggregated
- Activity (IAPP [3]): Active
